From patent publication US11312727B1, “Macrocyclic flu endonuclease inhibitors” (Janssen BioPharma, Inc., priority 2018, dated 2022)

How the values were obtained:
[1] = tested on: Influenza strain A549 A/WSN/33 (H1N1); test: microbe, parasite or virus in culture; assay type: cell-based; settings: Influenza A virus, A549, 20 h, A549 cells, influenza A/WSN/33 (H1N1), 20 hours incubation; read-out: A549_A(H1N1) EC50
in vitro = settings: human, CC50, uninfected A549 cells, CellTiter-Glo

Row | Structure (SMILES) | EC50 [1] | CC50 (in vitro)
1 | O=C1c2c(O)c(=O)ccn2N2CN1CC/C=C/COc1c(ccc(Cl)c1Cl)[C@@H]2c1ccccc1 (single isomer, unassigned) [Compound 111A, (2*S,*E)-33,34-dichloro-15-hydroxy-2-phenyl-12,13,14,16-tetrahydro-11H-4-oxa-1(1,3)-pyrido[2,1-f][1,2,4]triazina-3(1,2)-benzenacyclononaphan-6-ene-14,16-dione] | 4.3 nM | > 200 nM
2 | O=C1c2c(O)c(=O)ccn2N2CN1CC/C=C/COc1c(ccc(F)c1F)[C@@H]2c1ccccc1 (single isomer, unassigned) [Compound 112A, (2*S,E)-33,34-difluoro-15-hydroxy-2-phenyl-12,13,14,16-tetrahydro-11H-4-oxa-1(1,3)-pyrido[2,1-f][1,2,4]triazina-3(1,2)-benzenacyclononaphan-6-ene-14,16-dione] | 3.8 nM | > 200 nM
3 | O=C1c2c(O)c(=O)ccn2N2CN1C1(/C=C/COc3c(ccc(Cl)c3Cl)[C@H]2c2ccccc2)CC1 (single isomer, unassigned) [Compound 113A, (18′*R,*E)-3′,4′-dichloro-12′-hydroxy-18′-phenyl-6′H,18′H-spiro[cyclopropane-1,9′-[10,17]methanobenzo[b]pyrido[1,2-f][1]oxa[5,6,9]triazacyclotridecine]-11′,13′-dione] | > 100 nM | > 200 nM
4 | O=C1c2c(O)c(=O)ccn2N2CN1C1(/C=C/COc3c(ccc(Cl)c3Cl)[C@@H]2c2ccccc2)CC1 (single isomer, unassigned) [Compound 113B, (18′*S,*E)-3′,4′-dichloro-12′-hydroxy-18′-phenyl-6′H,18′H-spiro[cyclopropane-1,9′-[10,17]methanobenzo[b]pyrido[1,2-f][1]oxa[5,6,9]triazacyclotridecine]-11′,13′-dione] | 2 nM | > 200 nM
5 | O=C1c2c(O)c(=O)ccn2N2CN1CCCCOc1c(F)cccc1[C@H]2c1ccccc1 (single isomer, unassigned) [Compound 114A, (18*R)-4-fluoro-12-hydroxy-18-phenyl-6,7,8,9-tetrahydro-18H-10,17-methanobenzo[b]pyrido[1,2-f][1]oxa[5,6,9]triazacyclotridecine-11,13-dione] | 7 nM | > 200 nM
6 | O=C1c2c(O)c(=O)ccn2N2CN1CCCCOc1c(F)cccc1[C@@H]2c1ccccc1 (single isomer, unassigned) [Compound 114B, (18*S)-4-fluoro-12-hydroxy-18-phenyl-6,7,8,9-tetrahydro-18H-10,17-methanobenzo[b]pyrido[1,2-f][1]oxa[5,6,9]triazacyclotridecine-11,13-dione] | > 100 nM | > 200 nM
7 | O=C1c2c(O)c(=O)ccn2N2CN1CCCCOc1c(ccc(F)c1F)[C@H]2c1ccccc1 (single isomer, unassigned) [Compound 115A, (18*R)-3,4-difluoro-12-hydroxy-18-phenyl-6,7,8,9-tetrahydro-18H-10,17-methanobenzo[b]pyrido[1,2-f][1]oxa[5,6,9]triazacyclotridecine-11,13-dione] | > 100 nM | > 200 nM
8 | O=C1c2c(O)c(=O)ccn2N2CN1CCCCOc1c(ccc(F)c1F)[C@@H]2c1ccccc1 (single isomer, unassigned) [Compound 115B, (18*S)-3,4-difluoro-12-hydroxy-18-phenyl-6,7,8,9-tetrahydro-18H-10,17-methanobenzo[b]pyrido[1,2-f][1]oxa[5,6,9]triazacyclotridecine-11,13-dione] | 4.4 nM | > 200 nM
9 | O=C1c2c(O)c(=O)ccn2N2CN1CC/C=C\COc1c(ccc(F)c1F)[C@@H]2c1ccccc1 (single isomer, unassigned) [Compound 116A, (2*S,Z)-33,34-difluoro-15-hydroxy-2-phenyl-12,13,14,16-tetrahydro-11H-4-oxa-1(1,3)-pyrido[2,1-f][1,2,4]triazina-3(1,2)-benzenacyclononaphan-6-ene-14,16-dione] | 14 nM | > 200 nM
10 | COc1ccccc1[C@@H]1c2cccc(F)c2OC/C=C\CN2CN1n1ccc(=O)c(O)c1C2=O (single isomer, unassigned) [Compound 117A, (18*R,*Z)-4-fluoro-12-hydroxy-18-(2-methoxyphenyl)-6,9-dihydro-18H-10,17-methanobenzo[b]pyrido[1,2-f][1]oxa[5,6,9]triazacyclotridecine-11,13-dione] | 29 nM | > 200 nM
11 | COc1ccccc1[C@H]1c2cccc(F)c2OC/C=C\CN2CN1n1ccc(=O)c(O)c1C2=O (single isomer, unassigned) [Compound 117B, (18*S,*Z)-4-fluoro-12-hydroxy-18-(2-methoxyphenyl)-6,9-dihydro-18H-10,17-methanobenzo[b]pyrido[1,2-f][1]oxa[5,6,9]triazacyclotridecine-11,13-dione] | > 100 nM | > 200 nM
12 | O=C1c2c(O)c(=O)ccn2N2CN1C[C@H]1C[C@H]1COc1cccc3c1[C@H]2c1ccccc1SC3 (single isomer, unassigned) [Compound 118AA, (1a*R,11b*S,20a*S)-17-hydroxy-1a,2,6,11 b,17,17a,20,20a-octahydro-1H-5,4-(epiprop[1]en[1]yl[3]ylidene)-12,19-methanobenzo[6,7]thiepino[4,5-c]cyclopropa[k]pyrido[1,2-f][1]oxa[5,6,9]triazacyclotridecine-16,18-dione] | 6.2 nM | > 200 nM
13 | O=C1c2c(O)c(=O)ccn2N2CN1C[C@@H]1C[C@@H]1COc1cccc3c1[C@H]2c1ccccc1SC3 (single isomer, unassigned) [Compound 118AB, (1a*S,11b*S,20a*R)-17-hydroxy-1a,2,6,11b,17,17a,20,20a-octahydro-1H-5,4-(epiprop[1]en[1]yl[3]ylidene)-12,19-methanobenzo[6,7]thiepino[4,5-c]cyclopropa[k]pyrido[1,2-f][1]oxa[5,6,9]triazacyclotridecine-16,18-dione] | 10 nM | > 200 nM
14 | CSc1ccccc1[C@H]1c2cccc(F)c2OC/C=C\CN2CN1n1ccc(=O)c(O)c1C2=O (single isomer, unassigned) [Compound 119A, (18*R,*Z)-4-fluoro-12-hydroxy-18-(2-(methylthio)phenyl)-6,9-dihydro-18H-10,17-methanobenzo[b]pyrido[1,2-f][1]oxa[5,6,9]triazacyclotridecine-11,13-dione] | > 100 nM | > 200 nM
15 | CSc1ccccc1[C@@H]1c2cccc(F)c2OC/C=C\CN2CN1n1ccc(=O)c(O)c1C2=O (single isomer, unassigned) [Compound 119B, (18*S,*Z)-4-fluoro-12-hydroxy-18-(2-(methylthio)phenyl)-6,9-dihydro-18H-10,17-methanobenzo[b]pyrido[1,2-f][1]oxa[5,6,9]triazacyclotridecine-11,13-dione] | 22 nM | > 200 nM
16 | CC[C@@H]1/C=C/COc2c(ccc(Cl)c2Cl)C(c2ccccc2)N2CN1C(=O)c1c(O)c(=O)ccn12 (single isomer, unassigned) [Compound 121AA, (9*R,18*R,*E)-3,4-dichloro-9-ethyl-12-hydroxy-18-phenyl-6,9-dihydro-18H-10,17-methanobenzo[b]pyrido[1,2-f][1]oxa[5,6,9]triazacyclotridecine-11,13-dione] | 3.5 nM | > 200 nM
17 | CC[C@H]1/C=C/COc2c(ccc(Cl)c2Cl)[C@@H](c2ccccc2)N2CN1C(=O)c1c(O)c(=O)ccn12 (single isomer, unassigned) [Compound 121AB, (9*S,18*R,*E)-3,4-dichloro-9-ethyl-12-hydroxy-18-phenyl-6,9-dihydro-18H-10,17-methanobenzo[b]pyrido[1,2-f][1]oxa[5,6,9]triazacyclotridecine-11,13-dione] | > 100 nM | > 200 nM
18 | CC[C@@H]1/C=C/COc2c(ccc(Cl)c2Cl)[C@H](c2ccccc2)N2CN1C(=O)c1c(O)c(=O)ccn12 (single isomer, unassigned) [Compound 121BA, (9*R,18*S,*E)-3,4-dichloro-9-ethyl-12-hydroxy-18-phenyl-6,9-dihydro-18H-10,17-methanobenzo[b]pyrido[1,2-f][1]oxa[5,6,9]triazacyclotridecine-11,13-dione] | 2.8 nM | > 200 nM
19 | CC[C@H]1/C=C/COc2c(ccc(Cl)c2Cl)[C@H](c2ccccc2)N2CN1C(=O)c1c(O)c(=O)ccn12 (single isomer, unassigned) [Compound 121BB, (9*S,18*S,*E)-3,4-dichloro-9-ethyl-12-hydroxy-18-phenyl-6,9-dihydro-18H-10,17-methanobenzo[b]pyrido[1,2-f][1]oxa[5,6,9]triazacyclotridecine-11,13-dione] | 60 nM | > 200 nM
20 | CS(=O)(=O)c1ccccc1[C@@H]1c2cccc(F)c2OC/C=C\CN2CN1n1ccc(=O)c(O)c1C2=O (single isomer, unassigned) [Compound 122, (18*S,*Z)-4-fluoro-12-hydroxy-18-(2-(methylsulfonyl)phenyl)-6,9-dihydro-18H-10,17-methanobenzo[b]pyrido[1,2-f][1]oxa[5,6,9]triazacyclotridecine-11,13-dione] | > 100 nM | > 200 nM
21 | CC(C)[C@H]1/C=C/COc2c(F)cccc2[C@@H](c2ccccc2)N2CN1C(=O)c1c(O)c(=O)ccn12 (single isomer, unassigned) [Compound 124AA, (9*S,18*R,*E)-4-fluoro-12-hydroxy-9-isopropyl-18-phenyl-6,9-dihydro-18H-10,17-methanobenzo[b]pyrido[1,2-f][1]oxa[5,6,9]triazacyclotridecine-11,13-dione] | > 100 nM | > 200 nM
22 | CC(C)[C@@H]1/C=C/COc2c(F)cccc2[C@H](c2ccccc2)N2CN1C(=O)c1c(O)c(=O)ccn12 (single isomer, unassigned) [Compound 124BB, (9*R,18*S,*E)-4-fluoro-12-hydroxy-9-isopropyl-18-phenyl-6,9-dihydro-18H-10,17-methanobenzo[b]pyrido[1,2-f][1]oxa[5,6,9]triazacyclotridecine-11,13-dione] | 5.3 nM | > 200 nM
